Laboratory results: patent publication US9963703B2, “Compositions and methods for treating pancreatic cancer” (Autotelic LLC, priority 2016, dated 2018)
In the oligonucleotide strings, read from the 5' end, every base follows the letter of its sugar. An asterisk marks phosphorothioate; unmarked linkages are phosphodiester. Other units and linkages are bracketed, terminal groups are in braces. A string of capitals states the bases alone. d = 2'-deoxy (DNA)

Tested on: Patients With Advanced Tumors Known to Overproduce TGFβ2
Assay: Phase I/II dose escalation study P-001, safety (MTD, DLT, adverse events)
Type: in vivo, human
Protocol: Over-expression of transforming growth factor-beta 2 (TGF-β2) is associated with poor prognosis and plays a key role for malignant progression of various tumors by inducing proliferation, metastasis, angiogenesis and immunosuppression. P-001 trial of trabedersen-Safety and Tolerability of AP 12009 (trabedersen), Administered I.V. in Patients With Advanced Tumors Known to Overproduce TGFβ2, was evaluated to determine if treatment with trabedersen primed the tumors to subsequent chemotherapy.
In the instant study, the primary objective was to determine the Maximum Tolerated Dose (MTD) and the Dose Limited Toxicity (DLT) of two cycles of trabedersen administered intravenously (i.v.) for either 7 days every other week (i.e. 7 days on/7 days off) or for 4 days every other week (4 days on/10 days off). The secondary objective included assessment of antitumor activity of trabedersen administered intravenously for either 7 days every other week (i.e. 7 days on/7 days off) or for 4 days every other week (4 days on/10 days off).
The escalation scheme of this study aimed to determinate the MTD of two cycles of trabedersen (so called ‘core study period’) administered as a continuous i.v. infusion for 7 days every other week (7-days-on/7-days-off) or for 4 days every other week (4-days-on/10-days-off).
In general, it was planned to enroll a cohort of at least 3 evaluable patients per treatment group. For each cohort, the safety data obtained until end of the core study period (period for DLT-assessment, Cycle 1 and Cycle 2) were assessed in an interim analysis and evaluated by a Data and Safety Monitoring Board (DSMB). […] If 2 of these 3 patients experienced a DLT, the number of evaluable patients for the subsequent treatment group was increased to 6 for further evaluation of toxicity. Patients who were withdrawn from the study due to adverse events (AEs) attributed to DLT by the treating clinician, were not replaced but were used to determine the MTD and to evaluate the safety of the study drug. If patients were withdrawn due to other reasons, they were replaced until the treatment group was complete.
The MTD was determined according to the following procedure: If 2 out of 3 patients of 1 cohort experienced a DLT, 3 more patients were enrolled in the same treatment group. If at least 1 of these additional 3 patients also met the toxicity criteria for a DLT, the MTD for two cycles was determined; otherwise the dose escalation was continued upon agreement with the DSMB. MTD for two cycles was then defined as the dose at which no more than 2 out of 3, or 2 out of 6 patients of the same treatment group experienced a DLT. This procedure was followed until the MTD was reached.
The safety population comprised of 61 patients, representing all patients for whom at least once a trabedersen infusion was started. According to the protocol, the MTD was determined according to the following procedure: if […] out of 3 patients of one cohort experience dose-limiting toxicity, 3 more patients were enrolled in the same treatment group. If at least 1 more patient of this second cohort met the toxicity criteria, MTD for two cycles has been determined (otherwise escalation was continued). MTD for two cycles was then defined as the dose at which no more than 2 out of 3 or 2 out of 6 patients of the same treatment group experienced DLT. […] In the case that 2 patients of the first cohort experienced DLTs that clearly indicated attainment of the MTD, the second cohort could also be omitted. The described procedure was pursued until the MTD is reached.

[1] = 240 mg/m^2/day, 7-days-on and 7-days-off schedule
[2] = 4-days-on and 10-days-off schedule
[3] = 4-days-on, 10-days off schedule (N = 44)
[4] = 7-days-on and 7-days-off schedule
[5] = 7-days-on, 7-days off schedule (N = 17)

trabedersen: TGF-beta2 specific phosphorothioate antisense oligodeoxynucleotide with the sequence 5′-CGGCATGTCTATTTTGTA-3′ (SEQ ID No: 1) (antisense dC*dG*dG*dC*dA*dT*dG*dT*dC*dT*dA*dT*dT*dT*dT*dG*dT*dA)
dose-limiting toxicity observed (140 mg/m^2/day, 4-days-on and 10-days-off schedule, one patient): Grade 3 upper gastrointestinal hemorrhage | DLT: cases of Grade 3 maculopapular rash [1]: 1 | DLT: cases of Grade 3 thrombocytopenia [1]: 2 | number of patients who experienced a DLT [1]: 3 | patients with TEAEs that led to treatment discontinuation, % [2]: 15.9% | patients with TEAEs that led to treatment discontinuation, number [2]: 7 | MTD (4-days-on and 10-days-off schedule, no MTD established, highest dose tested): > 330 mg/m^2/day | Any SAE: % of patients with SAE [3]: 40.9% | Any SAE: No. of SAEs [3]: 28 | Any SAE: No. of patients with SAE [3]: 18 | Ascites: No. of patients with SAE [3]: 0 | Cancer Pain: % of patients with SAE [3]: 4.5% | Cancer Pain: No. of SAEs [3]: 2 | Cancer Pain: No. of patients with SAE [3]: 2 | Catheter related Infection: % of patients with SAE [3]: 2.3% | Catheter related Infection: No. of SAEs [3]: 1 | Catheter related Infection: No. of patients with SAE [3]: 1 | Cholangitis: % of patients with SAE [3]: 6.8% | Cholangitis: No. of SAEs [3]: 3 | Cholangitis: No. of patients with SAE [3]: 3 | Cholestasis: % of patients with SAE [3]: 2.3% | Cholestasis: No. of SAEs [3]: 1 | Cholestasis: No. of patients with SAE [3]: 1 | GI hemorrhage: % of patients with SAE [3]: 2.3% | GI hemorrhage: No. of SAEs [3]: 2 | GI hemorrhage: No. of patients with SAE [3]: 1 | Pneumonia: No. of patients with SAE [3]: 0 | Upper GI hemorrhage: % of patients with SAE [3]: 2.3% | Upper GI hemorrhage: No. of SAEs [3]: 1 | Upper GI hemorrhage: No. of patients with SAE [3]: 1 | MTD [4]: 160 mg/m^2/day | patients with TEAEs that led to treatment discontinuation, % [4]: 41.2% | patients with TEAEs that led to treatment discontinuation, number [4]: 7 | Any SAE: % of patients with SAE [5]: 70.6% | Any SAE: No. of SAEs [5]: 28 | Any SAE: No. of patients with SAE [5]: 12 | Ascites: % of patients with SAE [5]: 17.6% | Ascites: No. of SAEs [5]: 3 | Ascites: No. of patients with SAE [5]: 3 | Cancer Pain: No. of patients with SAE [5]: 0 | Catheter related Infection: % of patients with SAE [5]: 11.8% | Catheter related Infection: No. of SAEs [5]: 2 | Catheter related Infection: No. of patients with SAE [5]: 2 | Cholangitis: % of patients with SAE [5]: 5.9% | Cholangitis: No. of SAEs [5]: 1 | Cholangitis: No. of patients with SAE [5]: 1 | Cholestasis: % of patients with SAE [5]: 5.9% | Cholestasis: No. of SAEs [5]: 1 | Cholestasis: No. of patients with SAE [5]: 1 | GI hemorrhage: % of patients with SAE [5]: 11.8% | GI hemorrhage: No. of SAEs [5]: 3 | GI hemorrhage: No. of patients with SAE [5]: 2 | Pneumonia: % of patients with SAE [5]: 17.6% | Pneumonia: No. of SAEs [5]: 3 | Pneumonia: No. of patients with SAE [5]: 3 | Upper GI hemorrhage: % of patients with SAE [5]: 5.9% | Upper GI hemorrhage: No. of SAEs [5]: 1 | Upper GI hemorrhage: No. of patients with SAE [5]: 1 | MTD (4 days on and days off regimen (N=27), not reached at highest dose): > 330 mg/m^2/d | MTD (7 days on and 7 days off regimen (N=11)): 160 mg/m^2/d | Any SAE: % of patients with SAE (Total (N = 61)): 49.2% | Any SAE: No. of SAEs (Total (N = 61)): 56 | Any SAE: No. of patients with SAE (Total (N = 61)): 30 | Ascites: % of patients with SAE (Total (N = 61)): 4.9% | Ascites: No. of SAEs (Total (N = 61)): 3 | Ascites: No. of patients with SAE (Total (N = 61)): 3 | Cancer Pain: % of patients with SAE (Total (N = 61)): 3.3% | Cancer Pain: No. of SAEs (Total (N = 61)): 2 | Cancer Pain: No. of patients with SAE (Total (N = 61)): 2 | Catheter related Infection: % of patients with SAE (Total (N = 61)): 4.9% | Catheter related Infection: No. of SAEs (Total (N = 61)): 3 | Catheter related Infection: No. of patients with SAE (Total (N = 61)): 3 | Cholangitis: % of patients with SAE (Total (N = 61)): 6.6% | Cholangitis: No. of SAEs (Total (N = 61)): 4 | Cholangitis: No. of patients with SAE (Total (N = 61)): 4 | Cholestasis: % of patients with SAE (Total (N = 61)): 3.3% | Cholestasis: No. of SAEs (Total (N = 61)): 2 | Cholestasis: No. of patients with SAE (Total (N = 61)): 2 | GI hemorrhage: % of patients with SAE (Total (N = 61)): 4.9% | GI hemorrhage: No. of SAEs (Total (N = 61)): 3 | GI hemorrhage: No. of patients with SAE (Total (N = 61)): 3 | Pneumonia: % of patients with SAE (Total (N = 61)): 4.9% | Pneumonia: No. of SAEs (Total (N = 61)): 3 | Pneumonia: No. of patients with SAE (Total (N = 61)): 3 | Upper GI hemorrhage: % of patients with SAE (Total (N = 61)): 3.3% | Upper GI hemorrhage: No. of SAEs (Total (N = 61)): 2 | Upper GI hemorrhage: No. of patients with SAE (Total (N = 61)): 2 | number of patients for whom a DLT was proclaimed (all cohorts, 2 pancreatic carcinoma, 2 colorectal cancer): 4 | patients with TEAEs that led to treatment discontinuation, % (all patients): 23.0% | patients with TEAEs that led to treatment discontinuation, number (all patients): 14 | total number of TEAEs that led to treatment discontinuation (all patients): 23 | patients with TEAEs that led to treatment discontinuation, % (colorectal cancer): 40.0% | patients with TEAEs that led to treatment discontinuation, number (colorectal cancer): 2 | daily dose of MTD (initial 7-days-on and 7-days-off schedule): approx. 4 mg/kg/day | patients with TEAEs that led to treatment discontinuation, % (melanoma): 15.8% | patients with TEAEs that led to treatment discontinuation, number (melanoma): 3 | patients with TEAEs that led to treatment discontinuation, % (pancreatic cancer): 24.3% | patients with TEAEs that led to treatment discontinuation, number (pancreatic cancer): 9
